Results: US11230525B2, “Organic sulfur compound, method for preparing same, and pharmaceutical composition for preventing or treating cancer or an inflammatory disease, containing same as active ingredient” (SOOKMYUNG WOMENS UNIVERSITY INDUSTRY-ACADEMIC COOPERATION …, priority 2016, dated 2022)
pIC50: −log10 of the molar value.

Assays:
[1] = system: PC-3 cells, human prostate cancer cells; test: Anticancer activity in prostate cancer xenograft model; type: in vivo, mice; conditions: 50 mg/kg (SAHA 100 mg/kg) once a day for 16 days, compared with the non-treated group
Experimental: Particularly, 9×10^6 PC-3 cells, human prostate cancer cells, were inoculated subcutaneously to the right side of female BALB/c nu/nu mice at 5 weeks of age (Nara Biotech, Seoul, Republic of Korea).
(§1) When the tumor size reached 40-60 mm^3, the mice were randomly grouped (4 mice per group), which were the non-treated group (10% dimethylacetamide, 10% tween 80 and 80% distilled water), the groups treated with the compounds of comparative examples 1 and 2 (Ajoene, 50 mg/kg), the groups treated with the compounds of examples 18 and 32 (50 mg/kg), and the group treated with the positive control SAHA (Vorinostat, 100 mg/kg). The treatment was performed once a day for 16 days in total. During the treatment, the tumor size was measured with a vernier caliper, followed by evaluation according to the following formula: length (mm)×width (mm)×height (mm)/2. The weights were measured regularly.
(§2) Upon completion of the treatment (16 days later), the mice were sacrificed and the tumor weights were measured. All the experiments were performed according to the experiment protocol approved by Institutional Animal care and Use Committee (IACUC), Korea Research Institute of Bioscience and Biotechnology (KRIBB).

[2] = Body weight of mice in prostate cancer xenograft model; type: in vivo; conditions: 50 mg/kg (SAHA 100 mg/kg) once a day for 16 days
Experimental: as §1, §2

[3] = biological target: T1, HDAC 8 (Homo sapiens, UniProt Q9BY41); test: HDAC enzyme fluorescence assay, HDAC 8; type: biochemical; set-up: Inhibitory activity (%) HDAC 8: concentration or dose not given beside the values; conditions: for Inhibitory activity (%) HDAC 8: (HDAC inhibitory activity of example compound/HDAC inhibitory activity of SAHA) × 100
T1 sequence (Q9BY41 1-377): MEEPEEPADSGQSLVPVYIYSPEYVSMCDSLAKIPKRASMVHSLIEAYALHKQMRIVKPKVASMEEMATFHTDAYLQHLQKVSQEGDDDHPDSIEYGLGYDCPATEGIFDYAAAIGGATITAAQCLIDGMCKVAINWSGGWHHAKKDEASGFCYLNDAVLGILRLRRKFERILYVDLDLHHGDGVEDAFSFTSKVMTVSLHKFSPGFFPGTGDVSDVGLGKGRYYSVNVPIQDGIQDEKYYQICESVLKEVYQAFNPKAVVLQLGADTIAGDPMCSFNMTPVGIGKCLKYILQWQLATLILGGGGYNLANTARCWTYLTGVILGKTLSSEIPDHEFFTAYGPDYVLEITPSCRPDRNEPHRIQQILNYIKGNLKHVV
In short: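 Recombinant HDAC8 preincubated 10 min with compound in 25 mM HEPES pH 8.0, 137 mM NaCl, 1 mM MgCl2, 2.7 mM KCl, then Boc-Lys(acetyl)-AMC added at 37° C (level and time set per isoform). Trypsin development 20 min at room temperature, fluorescence 380/460 nm; activity expressed as percent relative to SAHA reference.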

[4] = system: breast cancer cell line (MDA-MB-231); test: Cancer proliferation inhibitory activity (SRB, GI50), MDA-MB-231; type: cell-based; conditions: Homo sapiens, 48 hours
In short: (§3)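 48 h compound exposure, 0.1–10 μM, 0.1% DMSO control; RPMI 1640/10% FBS, 37 °C, 5% CO2. TCA fix, 0.4% SRB stain, 10 mM Tris (pH 10.5) extraction, OD540; GI50 fitted.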

[5] = biological target: T2, HDAC 6 (Homo sapiens, UniProt Q9UBN7); test: HDAC enzyme fluorescence assay, HDAC 6; type: biochemical; conditions: recombinant HDAC enzyme, Boc-Lys(acetyl)-AMC
T2 sequence (Q9UBN7 1-1215): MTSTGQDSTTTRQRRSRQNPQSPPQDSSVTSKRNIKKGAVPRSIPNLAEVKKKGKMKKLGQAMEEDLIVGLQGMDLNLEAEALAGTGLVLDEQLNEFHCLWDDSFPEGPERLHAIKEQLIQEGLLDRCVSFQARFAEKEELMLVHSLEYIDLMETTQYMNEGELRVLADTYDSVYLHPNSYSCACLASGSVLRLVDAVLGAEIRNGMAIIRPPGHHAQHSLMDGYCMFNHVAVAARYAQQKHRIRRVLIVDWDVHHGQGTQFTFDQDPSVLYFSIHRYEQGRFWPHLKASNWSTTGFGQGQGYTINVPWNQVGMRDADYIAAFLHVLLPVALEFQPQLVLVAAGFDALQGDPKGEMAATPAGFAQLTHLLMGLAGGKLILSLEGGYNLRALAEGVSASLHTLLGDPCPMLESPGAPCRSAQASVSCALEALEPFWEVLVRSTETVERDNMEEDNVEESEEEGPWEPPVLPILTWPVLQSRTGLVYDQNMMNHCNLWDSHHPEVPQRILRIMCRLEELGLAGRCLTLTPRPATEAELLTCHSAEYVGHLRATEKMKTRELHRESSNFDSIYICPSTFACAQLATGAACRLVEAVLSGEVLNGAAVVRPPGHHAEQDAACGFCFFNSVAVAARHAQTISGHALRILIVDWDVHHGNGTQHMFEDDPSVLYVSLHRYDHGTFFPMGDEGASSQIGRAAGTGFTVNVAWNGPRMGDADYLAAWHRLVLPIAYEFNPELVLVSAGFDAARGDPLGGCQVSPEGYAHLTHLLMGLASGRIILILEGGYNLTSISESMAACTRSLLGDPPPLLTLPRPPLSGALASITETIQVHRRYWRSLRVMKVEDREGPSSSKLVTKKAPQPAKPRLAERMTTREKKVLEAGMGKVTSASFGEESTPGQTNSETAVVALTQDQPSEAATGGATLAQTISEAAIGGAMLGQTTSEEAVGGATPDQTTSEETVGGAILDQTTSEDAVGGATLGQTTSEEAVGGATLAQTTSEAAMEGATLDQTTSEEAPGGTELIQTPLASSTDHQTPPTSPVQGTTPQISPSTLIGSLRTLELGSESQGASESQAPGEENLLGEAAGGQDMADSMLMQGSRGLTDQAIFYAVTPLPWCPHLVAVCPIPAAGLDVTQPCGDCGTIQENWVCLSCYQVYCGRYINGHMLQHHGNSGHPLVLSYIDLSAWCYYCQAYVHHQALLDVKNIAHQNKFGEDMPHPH
Experimental: (§4) Particularly, HDAC enzyme analysis was performed based on a uniform fluorescence emission assay. First, the compounds of examples of the present invention or comparative example 1 were diluted at different concentrations, which were treated to the analysis buffer containing 25 mM HEPES (pH 8.0), 137 mM NaCl, 1 mM MgCl2 and 2.7 mM KCL, followed by culture of the recombinant HDAC enzyme. 10 minutes later, Boc-Lys(acetyl)-AMC, the fluorescence inducing substrate, was added thereto, followed by further culture at 37° C. At this time, the concentration of the fluorescence inducing substrate and the culture time were adjusted according to the isotypes of the HDAC enzyme. The reaction was terminated by treating trypsin at room temperature for 20 minutes. The fluorescence intensity was measured using a fluorescence analyzer at an excitation wavelength of 380 nm and an emission wavelength of 460 nm, respectively. The inhibition rate was calculated from the measured fluorescence intensity of each well with comparing to that of the control well. IC50 of the compound was calculated by analyzing the dose-reaction inhibition curve.

[6] = system: gastric cancer cell line (NUGC-3); test: Cancer proliferation inhibitory activity (SRB, GI50), NUGC-3; type: cell-based; conditions: Homo sapiens, 48 hours
In short: as §3

[7] = biological target: HDAC 1 (Homo sapiens, UniProt Q13547); test: HDAC enzyme fluorescence assay, HDAC 1; type: biochemical; conditions: recombinant HDAC enzyme, Boc-Lys(acetyl)-AMC
Sequence of HDAC 1 (Q13547 whole entry, species assumed): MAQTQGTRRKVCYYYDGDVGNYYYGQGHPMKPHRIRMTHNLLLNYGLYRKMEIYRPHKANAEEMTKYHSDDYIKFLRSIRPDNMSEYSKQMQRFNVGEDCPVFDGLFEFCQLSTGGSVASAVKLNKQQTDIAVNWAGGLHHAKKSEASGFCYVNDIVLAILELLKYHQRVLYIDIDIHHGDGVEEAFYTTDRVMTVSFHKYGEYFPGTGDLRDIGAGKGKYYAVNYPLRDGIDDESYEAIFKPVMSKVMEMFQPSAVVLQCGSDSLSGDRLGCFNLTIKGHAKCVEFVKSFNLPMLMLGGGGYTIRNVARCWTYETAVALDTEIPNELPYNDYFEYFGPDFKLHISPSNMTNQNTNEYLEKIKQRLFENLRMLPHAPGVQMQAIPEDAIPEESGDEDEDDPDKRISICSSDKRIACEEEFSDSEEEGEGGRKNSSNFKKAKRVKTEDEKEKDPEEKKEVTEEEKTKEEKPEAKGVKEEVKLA
Experimental: as §4

[8] = system: renal cancer cell line (ACHN); test: Cancer proliferation inhibitory activity (SRB, GI50), ACHN; type: cell-based; conditions: Homo sapiens, 48 hours
In short: as §3

[9] = system: prostate cancer cell line (PC-3); test: Cancer proliferation inhibitory activity (SRB, GI50), PC-3; type: cell-based; conditions: Homo sapiens, 48 hours
In short: as §3

[10] = system: lung cancer cell line (NCl-H23); test: Cancer proliferation inhibitory activity (SRB, GI50), NCI-H23; type: cell-based; conditions: Homo sapiens, 48 hours
In short: as §3

[11] = system: colorectal cancer cell line (HCT-15); test: Cancer proliferation inhibitory activity (SRB, GI50), HCT-15; type: cell-based; conditions: Homo sapiens, 48 hours
In short: as §3

Row | GI50 [4] [µM] | pIC50 [5] | GI50 [6] [µM] | pIC50 [7] | GI50 [8] [µM] | GI50 [9] [µM] | GI50 [10] [µM] | GI50 [11] [µM] | pIC50 ([3]; recombinant HDAC enzyme, Boc-Lys(acetyl)-AMC, read-out: IC50 HDAC 8) | Compound | tumor size / cancer proliferation (FIGS. 2, 3) [1] | changes in weight of mice / visible toxicity (FIG. 1) [2] | Inhibitory activity (%) HDAC 8 [3] [%]
1 | – | – | – | – | – | – | – | – | – | C=CCSS/C=C/C[S+]([O-])CC=C (stereo not drawn) [Comparative Example 1, E-Ajoene, reference compound] | cancer proliferation was inhibited | only normal weight increases were observed | 73.4
2 | 3.96 | 4.31 | 3.25 | 5.41 | 5.42 | 5.35 | 4.91 | 6.48 | 7.37 | [O-][S+](C/C=C\SSCc1ccccc1)c1ccccc1 (stereo not drawn) [Example 6, (Z)-1-benzyl-2-(3-(phenylsulfinyl)prop-1-enyl)disulfane] | – | – | 129.1
3 | 3.57 | – | 5.8 | 5.90 | 5.82 | 5.97 | 5.27 | 3.65 | – | COc1cccc([S+]([O-])C/C=C\SSCc2ccc(Cl)cc2)c1 (stereo not drawn) [Example 24, (Z)-1-(4-chlorobenzyl)-2-(3-(3-methoxyphenylsulfinyl)prop-1-enyl)disulfane] | – | – | 140.4

Row | Compound | GI50 [4] [µM] | pIC50 [5] | GI50 [6] [µM] | pIC50 [7] | GI50 [8] [µM] | GI50 [9] [µM] | GI50 [10] [µM] | GI50 [11] [µM] | pIC50 ([3]; recombinant HDAC enzyme, Boc-Lys(acetyl)-AMC, read-out: IC50 HDAC 8) | tumor size / cancer proliferation (FIGS. 2, 3) [1] | changes in weight of mice / visible toxicity (FIG. 1) [2] | Inhibitory activity (%) HDAC 8 [3] [%]
4 | C=CCSS/C=C\C[S+]([O-])CC=C (stereo not drawn) [Comparative Example 2, Z-Ajoene, reference compound] | > 10 | – | > 10 | – | > 10 | > 10 | > 10 | > 10 | – | cancer proliferation was inhibited | only normal weight increases were observed | 52.5
